Experimental data taken from patent US9845322B2 (Hoffmann-La Roche Inc., priority 2016, dated 2017).
pIC50: −log10 of the molar value. Like-named read-outs stand apart in the source and are kept apart here.

Columns and labels:
[1] = test system: HBsAg secretion in HepG2.2.15 cells; assay: HBsAg assay (chemiluminescence immunoassay of secreted HBsAg in culture supernatant); type: cell-based, HBV; conditions: concentration at which HBsAg secretion was reduced by 50% compared to the no drug control, read-out: IC50 (HBsAg assay)
How it was run: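 HepG2.2.15 cells (1.5×10^4/well, duplicate) treated with three-fold compound dilutions, 1% DMSO final, DMSO as no-drug control. Secreted HBsAg in supernatant quantified semi-quantitatively by chemiluminescence immunoassay; IC50 is concentration reducing HBsAg 50% versus no-drug control.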

[2] = test system: HBV DNA production in HepG2.2.15 cells; assay: HBV DNA assay (real-time qPCR/TaqMan of extracellular HBV DNA in cell supernatant); type: cell-based; conditions: Hepatitis B virus, 144 h, extracellular HBV DNA copy number, six days after initial administration, read-out: IC50 (Anti HBV DNA production activity)
Experimental: HepG2.2.15 cells (Acs et al. Proc Natl Acad Sci USA, 84, (1987), 4641-4), a constitutively HBV-expressing cell line were cultured in DMEM+Glutamax-I medium (Invitrogen, Carlsbad, Calif., USA), supplemented with 10% fetal bovine serum (Invitrogen) and G418 (Invitrogen) at a final concentration of 200 mg/L and maintained in 5% CO2 at 37° C.
The assay employs real-time qPCR (TaqMan) to directly measure extracellular HBV DNA copy number in the cell supernatant. HepG2.2.15 cells were plated in 96-well microtiter plates before treatment with complete medium (DMEM, Glutamax, 10% FBS, 1% Penicillin/Streptomycin, 250 μg/mL Genetycin, final DMSO concentration is 1%). Only the interior wells were utilized to reduce “edge effects” observed during cell culture, the exterior wells were filled with complete medium to help minimize sample evaporation. The HepG2.2.15 cells were treated 1 h later with various concentrations of a test compound in duplicate (top concentration used at 5 μM, 2 μM or 0.5 μM according to the HBsAg IC50 observed, with ⅓ successive dilutions (total of 10 dilutions). Six days following the initial administration of the test compound, the cell culture supernatant was collected; DNA extraction was performed by automated system (Magnapure) and then used in a real-time qPCR/TaqMan assay to determine HBV DNA copy numbers. Antiviral activity was calculated from the reduction in HBV DNA levels (IC50). The compounds of the present invention were tested for their capacity to inhibit HBV DNA as described herein.

[3] = Hepatitis B virus, HepG2.2.15, HepG2.2.15 cells

SMILES	pIC50 [1, 3]	pIC50 [2]	pIC50 ([1]; HepG2.2.15 cells)
CC1c2cnc(-c3ncccn3)nc2CCN1c1cc(OCC(F)F)cc(F)n1 (stereo not drawn) [Example 149, 6-[4-(2,2-difluoroethoxy)-6-fluoro-2-pyridyl]-5-methyl-2-pyrimidin-2-yl-7,8-dihydro-5H-pyrido[4,3-d]pyrimidine]	8.00	9.00	
CC1c2cnc(-c3ncccn3)nc2CCN1c1cc(N(C)C)cc(F)n1 (single isomer, unassigned; (-)) [Example 207, (−)-2-fluoro-N,N-dimethyl-6-[5-methyl-2-pyrimidin-2-yl-7,8-dihydro-5H-pyrido[4,3-d]pyrimidin-6-yl]pyridin-4-amine]		9.47	8.70
CC1c2cnc(-c3ncccn3)nc2CCN1c1cc(N2CCNC(=O)C2)cc(F)n1 (stereo not drawn) [Example 215, 4-[2-fluoro-6-(5-methyl-2-pyrimidin-2-yl-7,8-dihydro-5H-pyrido[4,3-d]pyrimidin-6-yl)-4-pyridyl]piperazin-2-one]	7.19	9.09	
CC1c2cnc(-c3ncccn3)nc2CCN1c1cc(F)c(F)c(OCCCCCCC(N)=O)c1 (stereo not drawn) [Example 87, 7-[2,3-difluoro-5-(5-methyl-2-pyrimidin-2-yl-7,8-dihydro-5H-pyrido[4,3-d]pyrimidin-6-yl)phenoxy]heptanamide]	7.14	8.00	
CC1c2cnc(-c3ncccn3)nc2CCN1c1cc(F)c(F)c(OCCCCC(N)=O)c1 (stereo not drawn) [Example 64, 5-[2,3-difluoro-5-(5-methyl-2-pyrimidin-2-yl-7,8-dihydro-5H-pyrido[4,3-d]pyrimidin-6-yl)phenoxy]pentanamide]	7.21	8.40	
COc1cc(N2CCc3nc(-c4ncccn4)ncc3C2C)cc(Cl)c1F (single isomer, unassigned; (-)) [Example 43, (−)-6-(3-chloro-4-fluoro-5-methoxy-phenyl)-5-methyl-2-pyrimidin-2-yl-7,8-dihydro-5H-pyrido[4,3-d]pyrimidine]		8.10	7.74
COc1cc(F)cc(N2CCc3nc(-c4ncccn4)ncc3C2C)c1 (single isomer, unassigned; (-)) [Example 73, (−)-6-(3-fluoro-5-methoxy-phenyl)-5-methyl-2-pyrimidin-2-yl-7,8-dihydro-5H-pyrido[4,3-d]pyrimidine]		8.30	7.74
CC1c2cnc(-c3ncccn3)nc2CCN1c1cc(F)c(F)c(OCCCCCCC(=O)O)c1 (stereo not drawn) [Example 86, 7-[2,3-difluoro-5-(5-methyl-2-pyrimidin-2-yl-7,8-dihydro-5H-pyrido[4,3-d]pyrimidin-6-yl)phenoxy]heptanoic acid]	7.00	9.00	
CC1c2cnc(-c3ncccn3)nc2CCN1c1cc(N2CCCC2)cc(F)n1 (single isomer, unassigned; (-)) [Example 200, (−)-6-(6-fluoro-4-pyrrolidin-1-yl-2-pyridyl)-5-methyl-2-pyrimidin-2-yl-7,8-dihydro-5H-pyrido[4,3-d]pyrimidine]		> 9.00	8.70
